Laboratory results as given in patent US20230212526A1, “PLURIPOTENT STEM CELL-DERIVED HEART ORGANOID” (Board of Trustees of Michigan State University, priority 2020, published 2023).

Legend:
[1] = tested on: human heart organoids (hHOs); assay: Second CHIR99021 exposure on day 7: epicardial cell and cardiomyocyte formation in hHOs (confocal quantification); type: cell-based
Protocol: Self-assembling hHO differentiation. Accutase® (Innovative Cell Technologies) was used to dissociate PSCs for spheroid formation. After dissociation, cells were centrifuged at 300 g for 5 minutes and resuspended in Essential 8™ Flex medium containing 2 μM ROCK inhibitor Thiazovivin (Millipore Sigma). hPSCs were then counted using a Moxi Cell Counter (Orflo Technologies) and seeded at 10000 cells/well in round bottom ultra-low attachment 96-well plates (Costar) on day −2. The plate was then centrifuged at 100 g for 3 minutes and placed in an incubator at 37° C. and 5% CO2. After 24 hours (day −1), 50 μl of media was carefully removed from each well and 200 μl of fresh Essential 8™ Flex medium was added for a final volume of 250 μl/well. The plate was returned to the incubator for a further 24 hours. On day 0, 166 μl (approximately ⅔ of total well volume) of media was removed from each well and 166 μl of RPMI 1640 with B27™ Supplement, minus insulin (Gibco) containing CHIR99021 (Selleck) was added at a final concentration of 4 μM/well along with BMP4 at 0.36 pM (1.25 ng/ml) and ActA at 0.08 pM (1 ng/ml) for 24 hours. On day 1, 166 μl of media was removed and replaced with fresh RPMI 1640 with B27™ Supplement, minus insulin. On day 2, RPMI 1640 with B27™ Supplement, minus insulin containing Wnt-059 (Selleck) was added for a final concentration of 2 μM Wnt-059, and the samples were incubated for 48 hours. The media was changed on day 4 and day 6. On day 6, media was changed to RPMI 1640 with B27™ Supplement (Gibco). […] Subsequently, media was changed every 48 hours until organoids were ready for analysis. Diabetic conditions were simulated by using basal RPMI media with 11.1 mM glucose and 58 nM insulin and compared with control media containing 3.5 mM glucose and 170 pM insulin.
Immunofluorescence. hHOs were transferred to microcentrifuge tubes (Eppendorf) using a cut 1000-μL pipette tip to avoid disruption to the organoids and fixed in 4% paraformaldehyde solution (dissolved in PBS) for 30 minutes at room temperature. […]
(§1) Confocal microscopy and image analysis. Samples were imaged using two confocal laser scanning microscopes (Nikon Instruments A1 Confocal Laser Microscope; Zeiss LSM 880 NLO Confocal Microscope System) and images were analyzed using Fiji (hypertext transfer protocol secure//imagej.net/Fiji). For tissue region quantification in the organoids, DAPI positive cells were used for normalization against the target cell marker of interest across three z-planes throughout each organoid. […]

[2] = tested on: human heart organoids (hHOs); assay: Cardiomyocyte differentiation in hHOs after initial CHIR99021 exposure (day 0, 24 hours), confocal TNNT2 quantification and beating; type: cell-based; details: for TNNT2+ cells (cardiomyocyte content): read at day 15
Protocol: Self-assembling hHO differentiation. Accutase® (Innovative Cell Technologies) was used to dissociate PSCs for spheroid formation. After dissociation, cells were centrifuged at 300 g for 5 minutes and resuspended in Essential 8™ Flex medium containing 2 μM ROCK inhibitor Thiazovivin (Millipore Sigma). hPSCs were then counted using a Moxi Cell Counter (Orflo Technologies) and seeded at 10000 cells/well in round bottom ultra-low attachment 96-well plates (Costar) on day −2. The plate was then centrifuged at 100 g for 3 minutes and placed in an incubator at 37° C. and 5% CO2. After 24 hours (day −1), 50 μl of media was carefully removed from each well and 200 μl of fresh Essential 8™ Flex medium was added for a final volume of 250 μl/well. The plate was returned to the incubator for a further 24 hours. […] On day 1, 166 μl of media was removed and replaced with fresh RPMI 1640 with B27™ Supplement, minus insulin. On day 2, RPMI 1640 with B27™ Supplement, minus insulin containing Wnt-059 (Selleck) was added for a final concentration of 2 μM Wnt-059, and the samples were incubated for 48 hours. The media was changed on day 4 and day 6. On day 6, media was changed to RPMI 1640 with B27™ Supplement (Gibco). On day 7, a second 4 μM CHIR99021 exposure was conducted for 1 hour in RPMI 1640 with B27™ Supplement. Subsequently, media was changed every 48 hours until organoids were ready for analysis. Diabetic conditions were simulated by using basal RPMI media with 11.1 mM glucose and 58 nM insulin and compared with control media containing 3.5 mM glucose and 170 pM insulin.
Immunofluorescence. hHOs were transferred to microcentrifuge tubes (Eppendorf) using a cut 1000-μL pipette tip to avoid disruption to the organoids and fixed in 4% paraformaldehyde solution (dissolved in PBS) for 30 minutes at room temperature. Fixation was followed by three washes in PBS-Glycine (20 mM) and incubation in blocking/permeabilization solution (10% Donkey Normal Serum, 0.5% Triton™ X-100, 0.5% BSA in PBS) on a thermal mixer (Thermo Scientific) at 300 RPM at 4° C. overnight. hHOs were then washed three times in PBS and incubated with primary antibodies (see Table 1) in Antibody Solution (1% Donkey Normal Serum, 0.5% Triton™ X-100, 0.5% BSA in PBS) on a thermal mixer at 300 RPM at 4° C. for 24 hours. […]
as §1

[3] = tested on: FlipGFP transgenic iPSC-L1 derived hHOs; assay: FlipGFP apoptosis reporter in hHOs (effector caspase activation); type: cell-based, human; details: 5 μM doxorubicin, positive control
Protocol: Lentiviral transduction. FlipGFP plasmid (Vector Builder) was transduced into a L1 iPSC line using a ZymoPURE™ II Plasmid Midiprep Kit (Fisher Scientific) according to manufacturer instructions. HEK293t were cultured in D10 media (DMEM+10% FBS+1% P/S) and later switched with reduced serum OptiMem™ (Gibco, Fisher Scientific) for 1 hour. Lipofectamine mixture (100 μl Lipofectamine 2000 (Thermo Fisher Scientific)+4 ml OptiMem™ sitting at room temperature for 5 minutes) was mixed with PLUS™ reagent mixture (200 μl PLUS™ reagent (Invitrogen, Fisher Scientific)+4 ml OptiMem™+20 μg lentiCRISPR plasmid+10 μg pMD2.gpVSVg (or pVSVgpMD2.g)+15 μg psPAX2) and was then added to the HEK293t cells and allowed to incubate at 37° C. for 6 hours. Following this, the media was changed to 30 ml D10+1% BSA per flask, without antibiotics. After 48-60 hours, the media was collected and centrifuged at 3000 rpm at 4° C. for 10 minutes. The supernatant was transferred to an Amicon® Filter Unit (Millipore-Sigma) and spun in a tabletop centrifuge at 3200 g for 30 minutes at 4° C. The flow through was dumped, and the process was repeated. The concentrated virus was aliquoted and stored at −80° C. Virus aliquot and polybrene (Fisher Scientific) were thawed at 37° C. Virus and polybrene were delivered to iPSC-L1s at low- to mid-confluences and incubated overnight. […]

[4] = single 2 μM CHIR99021 for 1 hour on day 7, read at day 15

Compound	formation of cardiac cell types other than epicardial cells (cardiomyocytes) ([1]; high concentrations or long exposure times of second exposure)	formation of proepicardium and epicardial cells ([1]; second exposure on day 7, 2-8 μM, 1-48 hours)	cardiomyocytes (TNNT2+ area) [1, 4]	epicardial cells (WT1+/TJP1+ area) [1, 4]	TNNT2+ cells (cardiomyocyte content) ([2]; 4 μM CHIR99021 on day 0 for 24 hours)	functional properties (beats per minute, percentage of beating hHOs) ([2]; 4 μM versus 6.6 μM and 8 μM CHIR99021)	TNNT2+ cells (cardiomyocyte content) ([2]; 6.6 μM CHIR99021 on day 0 for 24 hours)	TNNT2+ cells (cardiomyocyte content) ([2]; 8 μM CHIR99021 on day 0 for 24 hours)	apoptosis (FlipGFP fluorescence) [3]	apoptosis (FlipGFP fluorescence) ([3]; listed as Doxorubicin)
Cc1c[nH]c(-c2cnc(NCCNc3ccc(C#N)cn3)nc2-c2ccc(Cl)cc2Cl)n1 [CHIR99021]	marked inhibition	robustly promoted the formation of proepicardium and epicardial cells	60%	10-20%	64±5%	best functional properties of the three concentrations	9.6±5%	2.4±2%		
COc1cccc2c1C(=O)c1c(O)c3c(c(O)c1C2=O)C[C@@](O)(C(=O)CO)C[C@@H]3O[C@H]1C[C@H](N)[C@H](O)[C@H](C)O1 [doxorubicin]									high apoptosis	evident signs of cell death
